How the values were obtained:
the protein = assay: extent of unfolding of a protein measured by fluorescence versus time after temperature jump to 55° C. (rate of unfolding ku); assay type: binding; conditions: fluorescence versus time at 55° C.; 5% ethanol; 10% glycerol; AND^+; compared with control solution; FIG. 6
Description: Multiple identical protein solutions were arranged in two-dimensional arrays of reservoirs which were incubated at different temperatures. These samples were alternatively illuminated with UV light and monochromatic red light. The fluorescence emitted and the light scattered at 90° were measured from the top of the arrangement. The fluorescence emitted and the light scattered intensity data were collected at intervals of time of incubation for all the temperatures simultaneously. In another example, the protein was incubated in 5% ethanol; 10% glycerol, AND^+ or a control solution and the extent of unfolding was measured at 55° C. A plots of fluorescence at the given temperature versus time was automatically built for all the samples, and the rate of unfolding ku was obtained from the fitted exponential grow portion of the curves for the proteins jumped to 55° C.

[1] = test system: refolded Gaf domain of PDE10; assay: thermal aggregation (light scattering) of refolded protein, temperature of aggregation (Tag) with ligands; assay type: binding; conditions: refolded Gaf domain of PDE10 in presence of ligand; light scattering versus temperature; FIG. 10
Description: The fluorescence emitted and the light scattered at 90° were measured from the top of the arrangement. The fluorescence emitted and the light scattered intensity data were collected at intervals of time of incubation for all the temperatures simultaneously.

Row | Compound | effect on the stability of the protein (unfolding, ku) (the protein) | change of temperature of aggregation (Tag) [1]
1 | OCC(O)CO [Glycerol, glycerol] | stabilizing effect | –
2 | Nc1nc2c(ncn2[C@@H]2O[C@@H]3COP(=O)(O)O[C@H]3[C@H]2O)c(=O)[nH]1 [cGMP] | – | increased the Tag
3 | NC(=O)c1ccc[n+]([C@@H]2O[C@H](COP(=O)([O-])OP(=O)(O)OC[C@H]3O[C@@H](n4cnc5c(N)ncnc54)[C@H](O)[C@@H]3O)[C@@H](O)[C@H]2O)c1 [AND^+] | strongest stabilizing effect | –
4 | CCO [ethanol] | destabilizing effect or no effect at all | –
